Data as given in patent US20240270821A1, “GIP/GLP1/GCG TRI-RECEPTOR AGONISTS AND USES THEREOF” (priority 2023, published 2024).
Like-named read-outs stand apart in the source and are kept apart here. Starred links: 1 amine or outer side, 2 acyl side, 3 side chain; linkers in the order of their positions; H or OH if unused. Non-standard residues stand in square brackets, D forms with d. Residues, ends and D or L forms follow the SMILES beside them. Groups on a side chain read outwards from the residue. No end group written: not given here. *: point of attachment. C20 diacid = O=C(O)CCCCCCCCCCCCCCCCCCC(=O)*; C18 diacid = O=C(O)CCCCCCCCCCCCCCCCC(=O)*; Phe(4-CN) = N#Cc1ccc(C[C@H](N)C(=O)O)cc1; αMePhe(2-F) = C[C@](N)(Cc1ccccc1F)C(=O)O; γGlu = O=C(O)[C@H](CCC(=O)[*:2])N[*:1]; αMe4Pal = C[C@](N)(Cc1ccncc1)C(=O)O; αMeY = C[C@](N)(Cc1ccc(O)cc1)C(=O)O; 4Pal = N[C@@H](Cc1ccncc1)C(=O)O; αMeL = CC(C)C[C@](C)(N)C(=O)O; αMeS = C[C@](N)(CO)C(=O)O; Orn = NCCC[C@H](N)C(=O)O; AEEA = NCCOCCOCC(=O)O; Aib = CC(C)(N)C(=O)O

Key:
Assay type in all cases: cell-based
hGIPR [1] = target: T1, hGIPR (Homo sapiens, UniProt P48546); assay: Functional cAMP activity in the presence of 1% HSA; conditions: read-out: cAMP Rel EC50, hGIPR
T1 sequence (P48546 22-466): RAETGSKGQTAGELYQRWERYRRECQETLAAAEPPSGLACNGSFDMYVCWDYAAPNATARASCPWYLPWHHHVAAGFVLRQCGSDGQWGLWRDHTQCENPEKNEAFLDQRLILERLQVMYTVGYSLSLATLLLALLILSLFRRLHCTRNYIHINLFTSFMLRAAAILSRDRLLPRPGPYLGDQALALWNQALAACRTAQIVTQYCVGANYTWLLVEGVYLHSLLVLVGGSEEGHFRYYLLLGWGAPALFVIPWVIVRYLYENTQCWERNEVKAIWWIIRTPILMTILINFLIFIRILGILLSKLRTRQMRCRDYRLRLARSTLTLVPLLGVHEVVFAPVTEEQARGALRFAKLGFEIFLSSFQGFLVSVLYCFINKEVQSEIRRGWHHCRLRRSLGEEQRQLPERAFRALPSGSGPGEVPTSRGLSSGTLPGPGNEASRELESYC

hGLP-1R [2] = target: T2, hGLP-1R (Homo sapiens, UniProt P43220); assay: Functional cAMP activity in the presence of 1% HSA; conditions: read-out: cAMP Rel EC50, hGLP-1R
T2 sequence (P43220 24-463): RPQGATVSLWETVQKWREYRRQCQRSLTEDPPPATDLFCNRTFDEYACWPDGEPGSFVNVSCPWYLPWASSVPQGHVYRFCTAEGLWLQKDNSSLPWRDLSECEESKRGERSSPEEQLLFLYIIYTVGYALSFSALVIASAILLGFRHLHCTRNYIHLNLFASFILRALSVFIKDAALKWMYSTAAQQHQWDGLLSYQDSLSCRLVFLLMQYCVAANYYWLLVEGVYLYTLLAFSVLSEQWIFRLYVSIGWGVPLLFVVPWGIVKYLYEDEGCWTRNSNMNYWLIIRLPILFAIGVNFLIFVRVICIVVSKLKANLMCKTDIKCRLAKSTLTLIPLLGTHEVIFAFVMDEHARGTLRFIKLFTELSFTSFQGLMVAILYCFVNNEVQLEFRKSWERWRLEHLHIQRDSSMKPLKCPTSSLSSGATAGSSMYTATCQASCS

human GcgR = human GcgR (Homo sapiens, UniProt P47871); assay: Functional cAMP activity in the presence of 1% HSA; conditions: read-out: cAMP Rel EC50, hGcgR
human GcgR, sequence (P47871 26-477): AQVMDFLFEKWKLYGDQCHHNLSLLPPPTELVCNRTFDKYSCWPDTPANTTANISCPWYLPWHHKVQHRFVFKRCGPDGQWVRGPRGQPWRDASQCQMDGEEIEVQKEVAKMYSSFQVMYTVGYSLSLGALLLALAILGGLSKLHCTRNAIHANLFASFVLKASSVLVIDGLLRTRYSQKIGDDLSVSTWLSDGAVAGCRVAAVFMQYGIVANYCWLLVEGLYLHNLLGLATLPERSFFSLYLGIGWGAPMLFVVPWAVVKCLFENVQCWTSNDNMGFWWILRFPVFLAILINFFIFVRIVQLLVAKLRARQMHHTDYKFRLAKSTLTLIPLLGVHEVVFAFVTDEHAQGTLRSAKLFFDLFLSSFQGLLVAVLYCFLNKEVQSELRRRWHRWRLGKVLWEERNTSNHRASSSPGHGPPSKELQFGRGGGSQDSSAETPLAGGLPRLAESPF

hGIPR [3] = target: T1, hGIPR; assay: Functional cAMP activation in the presence of 0.1% casein (no HSA); conditions: read-out: Relative cAMP EC50, hGIPR;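 for Relative cAMP EC50, hGIPR: intracellular cAMP rise after 30 min at 37 °C read by HTRF against a standard curve, scaled between buffer alone (0%) and top control ligand concentration (100%), four-parameter fit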;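 for Relative cAMP EC50, hGLP-1R: intracellular cAMP rise after 30 min at 37 °C read by HTRF, normalized between buffer only (0%) and maximal control ligand (100%), four-parameter variable-slope fit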;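 for Relative cAMP EC50, hGcgR: intracellular cAMP rise after 30 min at 37 °C, read by HTRF against a cAMP standard curve, scaled from buffer only (0%) to maximal control ligand response (100%)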
hGLP-1R [4] = target: T2, hGLP-1R; assay: as above; conditions: read-out: Relative cAMP EC50, hGLP-1R
hGcgR = hGcgR (Homo sapiens, UniProt P47871); assay: as above; conditions: read-out: Relative cAMP EC50, hGcgR;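 note: intracellular cAMP rise after 30 min at 37 °C, read by HTRF against a cAMP standard curve, scaled from buffer only (0%) to maximal control ligand response (100%)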
hGcgR, sequence (P47871 26-477): as above

[5] = in the presence of 0.1% casein (no HSA), geometric mean
[6] = HEK-293 clonal cell line, in the presence of 1% HSA, geometric mean of relative EC50
[7] = 0.1% casein, no HSA, geometric mean

| Compound | EC50 (hGIPR [1]) [nM] | EC50 (hGLP-1R [2]) [nM] | EC50 (human GcgR) [nM] | EC50 (hGIPR [3]; [5]) [nM] | EC50 (hGLP-1R [4]; [5]) [nM] | EC50 (hGcgR; [5]) [nM] | EC50 (hGIPR [1]; [6]) [nM] | EC50 (hGLP-1R [2]; [6]) [nM] | EC50 (human GcgR; [6]) [nM] | EC50 (hGIPR [3]) [nM] | EC50 (hGLP-1R [4]) [nM] | EC50 (hGcgR) [nM] | EC50 (hGIPR [3]; [7]) [nM] | EC50 (hGLP-1R [4]; [7]) [nM] | EC50 (hGcgR; [7]) [nM] |
| --- | --- | --- | --- | --- | --- | --- | --- | --- | --- | --- | --- | --- | --- | --- | --- |
| H-Y[Aib]QGT[αMePhe(2-F)]TSD[4Pal][αMeS]I[αMeL]LD[Orn]K([γGlu-γGlu-C18 diacid])AQ[αMe4Pal]EFI[dE][αMeY]LVEGGPSSGEPPPSGSE-NH2 [Example 1163] | 0.721 | 35.4 | 163 | 0.00951 | 0.449 | 1.75 |  |  |  |  |  |  |  |  |  |
| H-Y[Aib]QGTFTSD[4Pal]SQ[αMeL]LDKK([γGlu-γGlu-C18 diacid])AQ[αMe4Pal]AFIEYLIE[Aib]GPSSGAPPPSGTGE-NH2 [Example 1127] |  |  |  | 0.167 | 6.16 | 5.95 | 7.72 | 234 | 425 |  |  |  |  |  |  |
| H-Y[Aib]QGTFTSD[4Pal]SQ[αMeL]LDKK([dE-γGlu-C18 diacid])AQ[αMe4Pal]AFIEYLIE[Aib]GPSSGAPPPSGS-NH2 [Example 920] | 9.05 | 322 | 1090 | 0.0905 | 2.28 | 4.61 |  |  |  |  |  |  |  |  |  |
| H-Y[Aib]QGT[αMePhe(2-F)]TSD[4Pal][αMeS]I[αMeL]LD[Orn]K([γGlu-γGlu-C18 diacid])AQ[Aib][Orn]FI[dE][αMeY]LSEGGPSSGEPPPSGGE-NH2 [Example 559] | 9.15 | 49.7 | 323 |  |  |  |  |  |  | 0.119 | 0.542 | 4.07 |  |  |  |
| H-Y[Aib]QGTFTSDFS[Orn][αMeL]LDKK([AEEA-γGlu-C18 diacid])AQ[Aib]AFIEWLLEGGSSSGAPPPSGH-NH2 [Example 270] | 36.5 | 658 | 1060 | 0.26 | 3.2 | 5 |  |  |  |  |  |  |  |  |  |
| CC[C@H](C)[C@H](NC(=O)[C@H](Cc1ccccc1)NC(=O)[C@H](CCCN)NC(=O)C(C)(C)NC(=O)[C@H](CCC(N)=O)NC(=O)[C@H](C)NC(=O)[C@H](CCCCNC(=O)COCCOCCNC(=O)CC[C@H](NC(=O)CC[C@H](NC(=O)CCCCCCCCCCCCCCCCC(=O)O)C(=O)O)C(=O)O)NC(=O)[C@H](CCCN)NC(=O)[C@H](CC(=O)O)NC(=O)[C@H](CC(C)C)NC(=O)[C@](C)(CC(C)C)NC(=O)[C@@H](NC(=O)[C@](C)(CO)NC(=O)[C@H](Cc1ccncc1)NC(=O)[C@H](CC(=O)O)NC(=O)[C@H](CO)NC(=O)[C@@H](NC(=O)[C@](C)(Cc1ccccc1F)NC(=O)[C@@H](NC(=O)CNC(=O)[C@H](CCC(N)=O)NC(=O)C(C)(C)NC(=O)[C@@H](N)Cc1ccc(O)cc1)[C@@H](C)O)[C@@H](C)O)[C@@H](C)CC)C(=O)N[C@H](CCC(=O)O)C(=O)N[C@@](C)(Cc1ccc(O)cc1)C(=O)N[C@@H](CC(C)C)C(=O)N[C@@H](CC(C)C)C(=O)N[C@@H](CCC(=O)O)C(=O)NCC(=O)NCC(=O)N1CCC[C@H]1C(=O)N[C@@H](CO)C(=O)N[C@@H](CO)C(=O)NCC(=O)N[C@@H](CCC(=O)O)C(=O)N1CCC[C@H]1C(=O)N1CCC[C@H]1C(=O)N1CCC[C@H]1C(=O)N[C@@H](CO)C(N)=O [Example 376] (H-Y[Aib]QGT[αMePhe(2-F)]TSD[4Pal][αMeS]I[αMeL]LD[Orn]K([AEEA-γGlu-γGlu-C18 diacid])AQ[Aib][Orn]FI[dE][αMeY]LLEGGPSSGEPPPS-NH2) | 5.42 | 26 | 115 | 0.0354 | 0.445 | 1.71 |  |  |  |  |  |  |  |  |  |
| H-Y[Aib]QGTFTSD[4Pal]S[Orn][αMeL]LD[Orn]K([γGlu-γGlu-γGlu-C18 diacid])AQ[αMe4Pal]AFIEYLIE[Aib]GPSSGAPPPSGSE-NH2 [Example 943] | 23.1 | 382 | 960 | 0.233 | 3.58 | 6.58 |  |  |  |  |  |  |  |  |  |
| H-Y[Aib]QGTFTSDFS[Orn][αMeL]LDKK([AEEA-γGlu-C18 diacid])AQ[Aib]AFIEYLLEGGESSGAPPPGGS-NH2 [Example 161] | 87.3 | 963 | 902 | 0.555 | 5.22 | 4.83 |  |  |  |  |  |  |  |  |  |
| CC[C@H](C)[C@H](NC(=O)[C@H](CC(C)C)NC(=O)[C@](C)(Cc1ccc(O)cc1)NC(=O)[C@@H](CCC(=O)O)NC(=O)[C@@H](NC(=O)[C@H](Cc1ccccc1)NC(=O)[C@H](CCC(=O)O)NC(=O)C(C)(C)NC(=O)[C@H](C)NC(=O)[C@H](C)NC(=O)[C@H](CCCCNC(=O)COCCOCCNC(=O)CC[C@H](NC(=O)CCCCCCCCCCCCCCCCC(=O)O)C(=O)O)NC(=O)[C@H](CCCN)NC(=O)[C@H](CC(=O)O)NC(=O)[C@H](CC(C)C)NC(=O)[C@](C)(CC(C)C)NC(=O)[C@@H](NC(=O)[C@](C)(CO)NC(=O)[C@H](Cc1ccncc1)NC(=O)[C@H](CC(=O)O)NC(=O)[C@H](CO)NC(=O)[C@@H](NC(=O)[C@](C)(Cc1ccccc1F)NC(=O)[C@@H](NC(=O)CNC(=O)[C@H](CCC(N)=O)NC(=O)C(C)(C)NC(=O)[C@@H](N)Cc1ccc(O)cc1)[C@@H](C)O)[C@@H](C)O)[C@@H](C)CC)[C@@H](C)CC)C(=O)N[C@@H](CCC(=O)O)C(=O)NCC(=O)NCC(=O)N1CCC[C@H]1C(=O)N[C@@H](CO)C(=O)N[C@@H](CO)C(=O)NCC(=O)N[C@@H](C)C(=O)N1CCC[C@H]1C(=O)N1CCC[C@H]1C(=O)N1CCC[C@H]1C(=O)N[C@@H](CO)C(=O)NCC(=O)N[C@@H](CO)C(=O)N[C@@H](CCC(=O)O)C(N)=O [Example 702] | 1.25 | 28.4 | 196 |  |  |  |  |  |  | 0.0116 | 0.243 | 1.5 |  |  |  |
| H-Y[Aib]QGTFTSDFSK[αMeL]LDKK([AEEA-γGlu-C20 diacid])AQ[Aib]AFIEYLLEGGPSSGEPPPEEG-NH2 [Example 35] | 194 | 1130 | 1390 | 0.55 | 3.05 | 4.32 |  |  |  |  |  |  |  |  |  |
| Y[Aib]QGTFTSD[4Pal]SQ[αMeL]LD[Orn]K([dE-γGlu-C18 diacid])AQ[αMe4Pal]AFIEYLIA[Aib]GPSSGEPPPSGSEE-NH2 [Example 1101] | 6.31 | 246 | 827 | 0.0592 | 1.75 | 4.72 |  |  |  |  |  |  |  |  |  |
| H-Y[Aib]Q[dA]T[αMePhe(2-F)]TSD[4Pal][αMeS]I[αMeL]LD[Orn]K([γGlu-γGlu-C18 diacid])AQ[Aib]EFI[dE][αMeY]LIEGGPSSGAPPPSGSE-NH2 [Example 1224] | 3.78 | 28.4 | 208 |  |  |  |  |  |  |  |  |  | 0.048 | 0.379 | 2.32 |
| H-Y[Aib]QGT[αMePhe(2-F)]TSD[Phe(4-CN)]SKLLDKIAQK([AEEA-γGlu-C20 diacid])AFIEYLIEGGPSSGAPPPSGS-NH2 [Example 363] | 91.8 | 217 | 4080 | 0.375 | 1.47 | 13.6 |  |  |  |  |  |  |  |  |  |
| Y[Aib]QGTFTSD[4Pal]SQ[αMeL]LDKK([AEEA-γGlu-C18 diacid])AQ[αMe4Pal]AFIEYLIAGGPSSGEPPPSGS-NH2 [Example 828] | 14.9 | 114 | 481 | 0.149 | 1.17 | 3.58 |  |  |  |  |  |  |  |  |  |
| H-Y[Aib]QGT[αMePhe(2-F)]TSD[4Pal]SI[αMeL]LD[Orn]K([AEEA-γGlu-C18 diacid])AQ[αMe4Pal][Orn]FI[dE][αMeY]LIEGGPSSGDPPPETE-NH2 [Example 730] | 1.29 | 33 | 216 |  |  |  |  |  |  | 0.0122 | 0.248 | 2.46 |  |  |  |
